The structures appear in SMILES notation.

Here are results for 31 compounds from patent US7566712B2, “Biaryl piperazinyl-pyridine analogues” (Neurogen Corporation, priority 2003, dated 2009).

For one assay, the target named is T1, human capsaicin receptor (Homo sapiens, UniProt Q8NER1).
T1 construct: pBK-CMV expression construct encoding the full length human capsaicin receptor; expressed in transfected cells
T1 sequence (Q8NER1 whole entry): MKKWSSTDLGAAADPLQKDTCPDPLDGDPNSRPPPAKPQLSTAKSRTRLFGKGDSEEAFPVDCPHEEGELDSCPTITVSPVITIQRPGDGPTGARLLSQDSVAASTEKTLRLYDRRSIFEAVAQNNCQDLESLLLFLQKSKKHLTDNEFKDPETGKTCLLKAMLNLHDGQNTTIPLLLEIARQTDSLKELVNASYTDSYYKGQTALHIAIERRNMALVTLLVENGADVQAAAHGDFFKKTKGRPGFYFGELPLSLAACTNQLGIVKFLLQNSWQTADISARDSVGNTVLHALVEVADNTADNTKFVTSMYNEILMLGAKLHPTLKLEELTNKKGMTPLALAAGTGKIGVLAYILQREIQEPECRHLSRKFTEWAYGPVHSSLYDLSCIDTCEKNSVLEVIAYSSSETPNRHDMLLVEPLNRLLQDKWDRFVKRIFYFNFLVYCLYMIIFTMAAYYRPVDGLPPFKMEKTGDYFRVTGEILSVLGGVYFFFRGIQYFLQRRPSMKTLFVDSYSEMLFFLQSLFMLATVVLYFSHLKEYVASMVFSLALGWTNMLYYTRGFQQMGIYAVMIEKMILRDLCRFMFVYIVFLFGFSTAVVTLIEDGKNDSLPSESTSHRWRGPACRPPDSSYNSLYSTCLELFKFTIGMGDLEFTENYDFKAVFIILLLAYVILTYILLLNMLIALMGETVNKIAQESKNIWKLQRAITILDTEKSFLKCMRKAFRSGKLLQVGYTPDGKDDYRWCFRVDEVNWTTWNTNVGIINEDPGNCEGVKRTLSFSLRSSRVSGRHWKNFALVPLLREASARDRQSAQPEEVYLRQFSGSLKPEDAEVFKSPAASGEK
Put plainly: Calcium mobilization assay, determination of antagonist activity (Example 6). Type of assay: cell-based. To be noted: Table II; IC50 determined as described in Example 6. The gist of the method: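 Antagonism measured as inhibition of capsaicin-evoked (final concentration = EC50, from an 8-point 1 nM–3 μM curve) Fluo-3 calcium signal in stable hVR1-HEK293 cells. Test compounds at 1–5 μM final, 0.5–6 h dark preincubation at room temperature. IC50 = concentration giving 50% reduction versus agonist-only response.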
For the compound `COc1cccc(-c2cc(N3CCN(c4ncccc4C#N)C[C@H]3C)nc(N3CCOCC3)n2)c1` [Example 523, 2-{(3R)-4-[6-(3-methoxyphenyl)-2-morpholin-4-ylpyrimidin-4-yl]-3-methylpiperazin-1-yl}nicotinonitrile], the IC50 (as a rule, the concentration needed to halve the response being measured) is at most 1000 nM.

Regarding `COCCOc1nc(-c2ccc(F)c(Cl)c2)cc(N2CCN(c3ncccc3C(F)(F)F)CC2)n1` [Example 554, 4-(3-chloro-4-fluorophenyl)-2-(2-methoxyethoxy)-6-{4-[3-(trifluoromethyl)pyridin-2-yl]piperazin-1-yl}pyrimidine], the IC50 is at most 1000 nM.

As to `COc1ccc(-c2cc(N3CCN(c4ncccc4C(F)(F)F)C[C@H]3C)nc(N3CCOCC3)n2)cc1F` [Example 541, 4-(4-(3-fluoro-4-methoxyphenyi)-6-{(2R)-2-methyl-4-[3-(trifluoromethyl)pyridin-2-yl]piperazin-1-yl}pyrimidin-2-yl)morpholine], the half-maximal inhibitory concentration (IC50) was at most 1000 nM.

On to `CCOC(=O)c1cccc(-c2nc(N3CCOCC3)nc(N3CCN(c4ccccn4)CC3)n2)c1` [Example 434, ethyl 3-[4-morpholin-4-yl-6-(4-pyridin-2-ylpiperazin-1-yl)-1,3,5-triazin-2-yl]benzoate], for which the IC50 is at most 1000 nM.

On to `Fc1ccc(-c2cc(N3CCN(c4ncccc4C(F)(F)F)CC3)nc(OC3CCNCC3)n2)cc1Cl` [Example 561, 4-(3-chloro-4-fluorophenyl)-2-(piperidin-4-yloxy)-6-{4-[3-(trifluoromethyl)pyridin-2-yl]piperazin-1-yl}pyrimidine], for which the IC50 is at most 1000 nM.

As to `Cc1cccnc1N1CCN(c2cc(-c3cccc(C(C)C)c3)nc(N3CCOCC3)n2)[C@H](C)C1` [Example 500, 4-{4-(3-isopropylphenyl)-6-[(2R)-2-methyl-4-(3-methylpyridin-2-yl)piperazin-1-yl]pyrimidin-2-yl}morpholine], the IC50 was at most 1000 nM.

For `N#Cc1ccc(-c2nc(N3CCOCC3)nc(N3CCN(c4ncccc4C(F)(F)F)CC3)n2)cc1` [Example 436, 4-(4-morpholin-4-yl-6-{4-[3-(trifluoromethyl)pyridin-2-yl]piperazin-1-yl}-1,3,5-triazin-2-yl)benzonitrile], the IC50 is at most 1000 nM.

The assay is the same for the next values; noted with them: Table II; IC50 determined as described in Example 6 (antagonist activity, calcium mobilization).
In the case of `CC1CCCN1c1nc(-c2ccc(F)c(Cl)c2)cc(N2CCN(c3ncc(C#N)cn3)CC2)n1` (stereo not shown) [Example 1009, 2-{4-[6-(3-chloro-4-fluorophenyl)-2-(2-methylpyrrolidin-1-yl)pyrimidin-4-yl]piperazin-1-yl}pyrimidine-5-carbonitrile], the IC50 is at most 1000 nM.

The same assay, now with this note: Table II; determined as described in Example 6 (antagonist activity); "*" = 1 micromolar or less.
Regarding `CC1CCCN1c1nc(-c2ccc(F)cc2)cc(N2CCN(c3ncccc3Cl)C[C@H]2C)n1` (stereo in doubt) [Example 842, 4-[4-(3-chloropyridin-2-yl)-2-methylpiperazin-1-yl]-6-(4-fluorophenyl)-2-(2-methylpyrrolidin-1-yl)pyrimidine], the IC50 is at most 1000 nM.

For `Cc1cc(-c2cc(N3CCN(c4ncccc4Cl)C[C@H]3C)nc(N3CCC[C@H]3C)n2)ccc1F` [Example 924, 4-[(2R)-4-(3-chloropyridin-2-yl)-2-methylpiperazin-1-yl]-6-(4-fluoro-3-methylphenyl)-2-[(2R)-2-methylpyrrolidin-1-yl]pyrimidine], the IC50 was at most 1000 nM.

`CC1CCN1c1nc(-c2ccc(F)c(Cl)c2)cc(N2CCN(c3ncccc3C(F)(F)F)C[C@H]2C)n1` (stereo partly drawn) [Example 781, 4-(3-chloro-4-fluorophenyl)-2-(2-methylazetidin-1-yl)-6-{(2R)-2-methyl-4-[3-(trifluoromethyl)pyridin-2-yl]piperazin-1-yl}pyrimidine]: the IC50 was at most 1000 nM.

For `C[C@@H]1CN(c2ncccc2C(F)(F)F)CCN1c1cc(-c2ccc(F)cc2)nc(N2CCCC2)n1` [Example 782, 4-(4-fluorophenyl)-6-{(2R)-2-methyl-4-[3-(trifluoromethyl)pyridin-2-yl]piperazin-1-yl}-2-pyrrolidin-1-ylpyrirnidine], the IC50 is at most 1000 nM.

On to `C[C@@H]1CN(c2ncccc2Cl)CCN1c1cc(-c2cccc(C#N)c2)nc(N2CCCC2)n1` [Example 868, 3-{6-[(2R)-4-(3-chloropyridin-2-yl)-2-methylpiperazin-1-yl]-2-pyrrolidin-1-ylpyrimidin-4-yl}benzonitrile], for which the IC50 is at most 1000 nM.

`Cc1ccc(C)n1-c1nc(-c2ccc(C#N)cc2)cc(N2CCN(c3ncccc3Cl)C[C@H]2C)n1` [Example 874, 4-[6-[(2R)-4-(3-chloropyridin-2-yl)-2-methypiperazin-1-yl]-2-(2,5-dimethyl-1H-pyrrol-1-yl)pyrimidin-4-yl]benzonitrile]: the IC50 was at most 1000 nM.

As for `Cc1cc(N)cnc1N1CCN(c2cc(-c3ccc(F)c(Cl)c3)nc(N3CCCC3C)n2)CC1` (stereo not shown) [Example 814, 6-{4-[6-(3-chloro-4-fluorophenyl)-2-(2-methylpyrrolidin-1-yl)pyrimidin-4-yl]piperazin-1-yl}-5-methylpyridin-3-amine], the IC50 was at most 1000 nM.

The assay is the same for the next values; noted with them: Table II; determined as described in Example 6; class symbol.
Regarding `Cc1cccc(-c2nc(N3CCOCC3)nc(N3CCN(c4ccccn4)CC3)n2)c1` [Example 234], the IC50 is at most 1000 nM.

The assay is the same for the next values; noted with them: determined as described in Example 6 (calcium mobilization, antagonist activity); Table II.
As for `Cc1cc(-c2cc(N3CCN(c4ncccc4C(F)(F)F)CC3)nc(C(C)O)n2)ccc1F` (stereo not shown) [Example 686, 1-(4-(4-fluoro-3-methylphenyl)-6-{4-[3-(trifluoromethyl)pyridin-2-yl]piperazin-1-yl}pyrimidin-2-yl)ethanol], the IC50 is at most 1000 nM.

As to `Cc1cc(-c2cc(N3CCN(c4ncccc4Cl)C[C@H]3C)nc(N3CCCCC3C)n2)ccc1F` (stereo partly drawn) [Example 745, 4-[(2R)-4-(3-chloropyridin-2-yl)-2-methylpiperazin-1-yl]-6-(4-fluoro-3-methylphenyl)-2-(2-methylpiperidin-1-yl)pyrimidine], the IC50 is at most 1000 nM.

With `CC1CCCN1c1nc(-c2ccc(F)c(Cl)c2)cc(N2CCN(c3ncccc3C(F)(F)F)CC2)n1` (stereo not shown) [Example 609, 4-(3-chloro-4-fluorophenyl)-2-(2-methylpyrrolidin-1-yl)-6-{4-[3-(trifluoromethyl)pyridin-2-yl]piperazin-1-yl}pyrimidine], the IC50 is at most 1000 nM.

As for `Fc1ccc(-c2cc(N3CCN(c4ncccc4C(F)(F)F)CC3)nc(OCc3ccccc3C(F)(F)F)n2)cc1F` [Example 582, 4-(3,4-difluorophenyl)-2-{[2-(trifluoromethyl)benzyl]oxy}-6-{4-[3-(trifluoromethyl)pyridin-2-yl]piperazin-1-yl}pyrimidine], the IC50 is at most 1000 nM.

In the case of `Cc1cc(-c2cc(N3CCN(c4ncccc4C(F)(F)F)CC3)nc(Cl)n2)ccc1F` [Example 638, 2-chloro-4-(4-fluoro-3-methylphenyl)-6-{4-[3-(trifluoromethyl)pyridin-2-yl]piperazin-1-yl}pyrimidine], the IC50 was at most 1000 nM.

Regarding `[O-][n+]1ccc(-c2nc(-c3ccc(F)c(Cl)c3)cc(N3CCN(c4ncccc4C(F)(F)F)CC3)n2)cc1` [Example 670], the IC50 is at most 1000 nM.

As to `FC(F)(F)c1cccnc1N1CCN(c2cc(-c3ccc(N4CCCC4)c(Cl)c3)nc(N3CCCC3)n2)CC1` [Example 608, 4-(3-chloro-4-pyrrolidin-1-ylphenyl)-2-pyrrolidin-1-yl-6-{4-[3-(trifluoromethyl)pyridin-2-yl]piperazin-1-yl}pyrimidine], the IC50 is at most 1000 nM.

As for `Fc1ccc(-c2cc(N3CCN(c4ncccc4C(F)(F)F)CC3)nc(N3CCC3)n2)cc1Cl` [Example 710, 2-azetidin-1-yl-4-(3-chloro-4-fluorophenyl)-6-{4-[3-(trifluoromethyl)pyridin-2-yl]piperazin-1-yl}pyrimidine], the IC50 was at most 1000 nM.

Turning to `O=C1NCC2(CCN(c3nc(-c4ccc(F)c(Cl)c4)cc(N4CCN(c5ncccc5C(F)(F)F)CC4)n3)CC2)O1` [Example 581, 8-(4-(3-chloro-4-fluorophenyl)-6-{4-[3-(trifluoromethyl)pyridin-2-yl]piperazin-1-yl}pyrimidin-2-yl)-1-oxa-3,8-diazaspiro[4.5]decan-2-one], the IC50 was at most 1000 nM.

In the case of `Fc1ccc(-c2cc(N3CCN(c4ncccc4C(F)(F)F)CC3)nc(N3CCCC3)n2)cc1Cl` [Example 603, 4-(3-chloro-4-fluorophenyl)-2-pyrrolidin-1-yl-6-{4-[3-(trifluoromethyl)pyridin-2-yl]piperazin-1-yl}pyrimidine], the IC50 was at most 1000 nM.

On to `C[C@@H]1CN(c2ncccc2Cl)CCN1c1cc(-c2ccc(F)c(Cl)c2)nc(N2CCCCC2)n1` [Example 734, 4-(3-chloro-4-fluorophenyl)-6-[(2R)-4-(3-chloropyridin-2-yl)-2-methylpiperazin-1-yl]-2-piperidin-1-ylpyrimidine], for which the IC50 is at most 1000 nM.

On to `CC1CN(c2nc(-c3ccc(F)c(Cl)c3)cc(N3CCN(c4ncccc4C(F)(F)F)CC3)n2)CCN1C` (stereo not shown) [Example 634, 4-(3-chloro-4-fluorophenyl)-2-(3,4-dimethylpiperazin-1-yl)-6-{4-[3-(trifluoromethyl)pyridin-2-yl]piperazin-1-yl}pyrimidine], for which the IC50 is at most 1000 nM.

For `CC(C)c1nccn1-c1nc(-c2cccc(Cl)c2)cc(N2CCN(c3ncccc3C(F)(F)F)CC2)n1` [Example 618, 4-(3-chlorophenyl)-2-(2-isopropyl-1H-imidazol-1-yl)-6-{4-[3-(trifluoromethyl)pyridin-2-yl]piperazin-1-yl}pyrimidine], the IC50 was at most 1000 nM.

In the case of `Cc1cc(-c2cc(N3CCN(c4ncccc4Cl)CC3)nc(N3CCCCC3C)n2)ccc1F` (stereo not shown) [Example 744, 4-[4-(3-chloropyridin-2-yl)piperazin-1-yl]-6-(4-fluoro-3-methylphenyl)-2-(2-methylpiperidin-1-yl)pyrimidine], the IC50 was at most 1000 nM.

In the case of `Cc1cc(-c2cc(N3CCN(c4ncccc4C(F)(F)F)CC3)nc(C(C)N(C)C)n2)ccc1F` (stereo not shown) [Example 681, 1-(4-(4-fluoro-3-methylphenyl)-6-{4-[3-(trifluoromethyl)pyridin-2-yl]piperazin-1-yl}pyrimidin-2-yl)-N,N-dimethylethanamine], the IC50 is at most 1000 nM.
